Data from PMC4977651, “Molecular features of biguanides required for targeting of mitochondrial respiratory complex I and activation of AMP-kinase” (BMC Biology, 2016).
pIC50: −log10 of the molar value. “And” between values parts separate entries of the source, which are not always exact repeats. Equal entries are not always repeated. Where two headings read alike, the source gives them in different places.

What was measured:
permeabilized MDBK cells = experiment: ADP-stimulated rotenone-sensitive OCR in permeabilized MDBK cells; format: cell-based, Bos taurus; design: rotenone sensitive OCR after ADP stimulation, average / rotenone sensitive OCR after ADP stimulation: unit not given here; details: MDBK permeabilised cells; for rotenone sensitive OCR after ADP stimulation, % of control, average / rotenone sensitive OCR after ADP stimulation, average: average of replicates; for rotenone sensitive OCR after ADP stimulation / rotenone sensitive OCR after ADP stimulation, % of control: individual replicates
Method: For permeabilized cell experiments, cells were seeded into XF96 plates at 0.9–1.1 × 10^4 per well and incubated for 48 h at 37 °C in 5 % CO2. Then, the growth medium was exchanged for assay buffer containing 3 nM plasma membrane permeabilizer ‘PMP’ (Seahorse Biosciences Inc.), 10 mM glutamate, 10 mM malate, 220 mM mannitol, 70 mM sucrose, 10 mM KH2PO4, 5 mM MgCl2, 1 mM EGTA, 0.2 % fatty acid-free bovine serum albumin (BSA), and 2 mM HEPES (pH 7.4 at 37 °C). […] The biguanides were allowed to accumulate for 30 min, then respiration was […] by the addition of 4 mM ADP. Rotenone was added (2 μM) at the end of the experiment.
Rotenone-sensitive OCRs were calculated by subtracting the rotenone-insensitive rates (determined at the end of the experiment). OCRs were normalized by dividing by the OCR recorded immediately prior to the addition of biguanide. For rate of uptake calculations, the OCRs at time points after biguanide addition were divided by the OCRs at the same time points in control experiments. Data from wells with failed port injections were excluded from the analyses. The respiratory control ratio (RCR) values (state III versus state IV respiration) were ~11 and ~6 for permeabilized MDBK and 143B cells, respectively.

[1] = biological target: mouse heart mitochondrial membranes (complex I) (Mus musculus, UniProt P03888+P03899+Q91WD5+Q9DC70); experiment: NADH:O2 oxidoreduction by mouse heart mitochondrial membranes; format: biochemical; details: for LogIC50 (best fit value): log of IC50 in mM
Procedure, shortened: (§1)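 At 32 °C, rates were taken by linear regression of NADH absorbance loss after NADH start. Isolated enzyme (0.5 μg mL^−1): 200 μM decylubiquinone, 200 μM NADH, pH 7.2 Tris with 0.15 % asolectin and CHAPS. Membranes (5 μg mL^−1): 200 μM NADH, 0.15 mM cytochrome c, pH 7.4 Tris-sucrose. IC50s carry 95 % confidence intervals.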

[2] = biological target: bovine heart mitochondrial membranes (complex I) (Bos taurus, UniProt P03887+P03898+P17694+P42026); experiment: NADH:O2 oxidoreduction by bovine heart mitochondrial membranes (complexes I-III-IV); format: biochemical
Procedure, shortened: as §1

rat liver mitochondria = experiment: ADP-stimulated rotenone-sensitive OCR in isolated rat liver mitochondria; format: biochemical; design: rotenone sensitive OCR after ADP stimulation, individual replicates / rotenone sensitive OCR after ADP stimulation, average: unit not given here; details: for rotenone sensitive OCR after ADP stimulation, % of control, average / rotenone sensitive OCR after ADP stimulation, average: average of replicates; for rotenone sensitive OCR after ADP stimulation, % of control, individual replicates / rotenone sensitive OCR after ADP stimulation, individual replicates: replicate 1-5
Method: Complex I and mitochondrial membranes were prepared from Bos taurus (bovine) heart. Intact mitochondria were isolated from rat liver and mouse heart and liver. Membranes were prepared from mouse heart mitochondria by 5 s bursts of sonication at 4 °C and collected by centrifugation (75,000 × g, 1 h).
Isolated mitochondria were monitored using a Seahorse XF96 extracellular flux analyzer at 32 °C. Mouse heart mitochondria, and mouse and rat liver mitochondria were plated into XF96 plates at 4 and 16–20 μg per well, respectively, in 220 mM mannitol, 70 mM sucrose, 10 mM KH2PO4, 5 mM MgCl2, 1 mM EGTA, 0.2 % fatty acid-free BSA, and 2 mM HEPES (pH 7.4 at 37 °C) with 10 mM glutamate and 10 mM malate and adhered by centrifugation (2000 × g, 20 min, 4 °C). The medium was supplemented with a further 5 mM glutamate and 5 mM malate and the mitochondria incubated for 15 min. Then two baseline readings were taken before the biguanides were added at IC50/5. Biguanides were allowed to accumulate for 15–20 min before respiration was […] by the addition of 4 mM ADP. Rotenone (2 μM) was added at the end of the experiment. Data from wells with failed port injections were excluded from the analyses. The RCR values (state III versus state IV respiration) were 3.4, 4.8, and 4.6 for mouse heart, rat liver, and mouse liver, respectively.

[3] = bovine heart mitochondrial membranes; inhibitor 0.025 mM; read-out: average % (rate, % of no-inhibitor control)
[4] = bovine heart mitochondrial membranes; inhibitor 0.05 mM; read-out: average % (rate, % of no-inhibitor control)
[5] = bovine heart mitochondrial membranes; inhibitor 0.25 mM; read-out: average % (rate, % of no-inhibitor control)
[6] = bovine heart mitochondrial membranes; inhibitor 0.50 mM; read-out: average % (rate, % of no-inhibitor control)
[7] = log of concentration in mM; sample given as Bovine heart mitochondrial membranes; Prism variable slope fit, Bottom 0, Top 100
[8] = sample given as Bovine heart mitochondrial membranes; Prism variable slope fit, Bottom 0, Top 100

mouse heart mitochondrial membranes (complex I), sequence (P03899 whole entry): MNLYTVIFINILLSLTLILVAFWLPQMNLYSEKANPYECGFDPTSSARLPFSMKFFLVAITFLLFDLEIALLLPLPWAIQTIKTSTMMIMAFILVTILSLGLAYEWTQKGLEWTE
mouse heart mitochondrial membranes (complex I), sequence (P03888 whole entry): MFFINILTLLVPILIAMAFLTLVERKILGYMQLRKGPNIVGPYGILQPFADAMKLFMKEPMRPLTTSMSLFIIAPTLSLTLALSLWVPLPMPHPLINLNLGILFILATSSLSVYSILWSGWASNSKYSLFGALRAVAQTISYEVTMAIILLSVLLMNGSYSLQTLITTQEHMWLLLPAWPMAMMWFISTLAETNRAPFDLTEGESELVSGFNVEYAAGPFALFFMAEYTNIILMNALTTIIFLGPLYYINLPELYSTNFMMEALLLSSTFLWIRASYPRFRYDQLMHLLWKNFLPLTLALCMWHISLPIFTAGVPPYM
mouse heart mitochondrial membranes (complex I), sequence (Q9DC70 36-224): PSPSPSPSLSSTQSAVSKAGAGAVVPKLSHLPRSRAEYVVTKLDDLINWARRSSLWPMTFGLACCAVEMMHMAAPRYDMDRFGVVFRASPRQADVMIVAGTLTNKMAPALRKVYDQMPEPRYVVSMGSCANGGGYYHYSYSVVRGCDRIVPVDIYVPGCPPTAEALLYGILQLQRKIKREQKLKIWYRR
mouse heart mitochondrial membranes (complex I), sequence (Q91WD5 34-463): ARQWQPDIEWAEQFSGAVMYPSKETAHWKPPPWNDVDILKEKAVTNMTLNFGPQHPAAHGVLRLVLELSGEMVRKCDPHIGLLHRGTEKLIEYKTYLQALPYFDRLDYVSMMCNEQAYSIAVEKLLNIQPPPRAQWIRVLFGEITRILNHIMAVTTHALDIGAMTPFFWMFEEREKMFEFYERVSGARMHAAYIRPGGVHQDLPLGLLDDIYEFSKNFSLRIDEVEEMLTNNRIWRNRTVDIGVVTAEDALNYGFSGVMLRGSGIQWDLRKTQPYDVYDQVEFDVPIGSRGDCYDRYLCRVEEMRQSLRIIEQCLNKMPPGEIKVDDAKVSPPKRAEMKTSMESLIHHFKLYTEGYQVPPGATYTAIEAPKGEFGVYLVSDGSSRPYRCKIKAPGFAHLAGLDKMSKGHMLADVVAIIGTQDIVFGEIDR
bovine heart mitochondrial membranes (complex I), sequence (P42026 38-216): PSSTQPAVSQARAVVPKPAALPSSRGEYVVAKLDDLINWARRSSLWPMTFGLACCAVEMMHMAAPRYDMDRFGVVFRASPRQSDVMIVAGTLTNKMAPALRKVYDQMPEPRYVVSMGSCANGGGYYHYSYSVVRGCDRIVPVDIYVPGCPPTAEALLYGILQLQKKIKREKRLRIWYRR
bovine heart mitochondrial membranes (complex I), sequence (P17694 34-463): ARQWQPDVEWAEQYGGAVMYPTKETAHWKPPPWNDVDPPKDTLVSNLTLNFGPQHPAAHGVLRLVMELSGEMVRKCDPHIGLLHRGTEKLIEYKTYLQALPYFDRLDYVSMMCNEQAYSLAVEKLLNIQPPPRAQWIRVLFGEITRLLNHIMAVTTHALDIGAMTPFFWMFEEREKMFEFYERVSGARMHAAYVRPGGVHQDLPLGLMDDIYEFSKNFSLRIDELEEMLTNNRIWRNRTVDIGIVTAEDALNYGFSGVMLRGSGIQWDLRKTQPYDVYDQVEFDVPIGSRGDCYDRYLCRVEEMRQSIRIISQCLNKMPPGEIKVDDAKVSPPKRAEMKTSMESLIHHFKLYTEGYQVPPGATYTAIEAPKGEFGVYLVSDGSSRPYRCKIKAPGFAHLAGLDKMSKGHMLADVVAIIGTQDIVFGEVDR
bovine heart mitochondrial membranes (complex I), sequence (P03887 whole entry): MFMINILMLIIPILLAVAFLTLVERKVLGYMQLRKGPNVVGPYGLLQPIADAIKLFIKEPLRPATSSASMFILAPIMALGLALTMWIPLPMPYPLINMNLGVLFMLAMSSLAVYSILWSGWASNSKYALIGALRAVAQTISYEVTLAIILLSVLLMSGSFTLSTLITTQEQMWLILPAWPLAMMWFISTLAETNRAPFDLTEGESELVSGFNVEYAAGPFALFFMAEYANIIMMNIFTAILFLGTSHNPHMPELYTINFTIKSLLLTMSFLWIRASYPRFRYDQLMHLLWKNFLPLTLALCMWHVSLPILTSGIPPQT
bovine heart mitochondrial membranes (complex I), sequence (P03898 whole entry): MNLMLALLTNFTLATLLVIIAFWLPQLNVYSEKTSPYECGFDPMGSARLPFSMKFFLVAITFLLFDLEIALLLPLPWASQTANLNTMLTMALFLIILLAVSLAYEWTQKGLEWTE

Structure (SMILES)	rotenone sensitive OCR after ADP stimulation, % of control, average (permeabilized MDBK cells)	rotenone sensitive OCR after ADP stimulation, average (permeabilized MDBK cells)	rotenone sensitive OCR after ADP stimulation, % of control, average (permeabilized MDBK cells; biguanide at IC50/5)	rotenone sensitive OCR after ADP stimulation, average (permeabilized MDBK cells; biguanide at IC50/5)	rotenone sensitive OCR after ADP stimulation (permeabilized MDBK cells; biguanide at IC50/5)	rotenone sensitive OCR after ADP stimulation, % of control (permeabilized MDBK cells; biguanide at IC50/5)	HillSlope (best fit value) ([1]; Prism variable slope fit)	LogIC50 (best fit value) ([1]; Prism variable slope fit)	remaining activity at 25 µM [2, 3]	remaining activity at 50 µM [2, 4]	remaining activity at 250 µM [2, 5]	remaining activity at 500 µM [2, 6]	LogIC50 (best fit value) [2, 7]	HillSlope (best fit value) [2, 8]	rotenone sensitive OCR after ADP stimulation, % of control, average (rat liver mitochondria)	rotenone sensitive OCR after ADP stimulation, average (rat liver mitochondria)	rotenone sensitive OCR after ADP stimulation, % of control, individual replicates (rat liver mitochondria)	rotenone sensitive OCR after ADP stimulation, individual replicates (rat liver mitochondria)	other results
[H]/N=C(\N/C(=N/[H])Nc1ccc(Cl)cc1)NC(C)C [proguanil, reference compound]	105.17 % of control	296.39	105.17 % of control	296.39	272.71 and 215.77 and 253.06 and 330.67 and 409.72	96.77 % of control and 76.56 % of control and 89.79 % of control and 117.34 % of control and 145.38 % of control	-0.7979	-1.959	41.4%	24.9%	6.98%	7.97%	-1.788	-1.025	91.40 % of control	25.06	82.64 % of control and 94.24 % of control and 97.33 % of control	22.66 and 25.84 and 26.69	pIC50 ([1]; read-out: IC50 (best fit value), Prism variable slope fit, Bottom 0, Top 100): 4.96; remaining activity at 5 µM ([2]; bovine heart mitochondrial membranes; inhibitor 0.005 mM; read-out: average % (rate, % of no-inhibitor control)): 76.5%; remaining activity at 12.5 µM ([2]; bovine heart mitochondrial membranes; inhibitor 0.0125 mM; read-out: average % (rate, % of no-inhibitor control)): 56.2%; remaining activity at 100 µM ([2]; bovine heart mitochondrial membranes; inhibitor 0.10 mM; read-out: average % (rate, % of no-inhibitor control)): 7.77%; pIC50 ([2]; read-out: IC50 (best fit value); sample given as Bovine heart mitochondrial membranes; Prism log(inhibitor) vs. response variable slope fit (four parameters), Bottom 0, Top 100): 4.79
CC(C)N=C(N)N=C(N)NC(C)C [compound 5, N-(propan-2-yl)-1-3-(propan-2-yl)carbamimidamidomethanimidamide]	94.54 % of control	266.44	94.54 % of control	266.44	341.66 and 308.83 and 224.55 and 216.86 and 280.18 and 213.17 and 210.97 and 335.32	121.23 % of control and 109.59 % of control and 79.68 % of control and 76.95 % of control and 99.42 % of control and 75.64 % of control and 74.86 % of control and 118.98 % of control	-1.037	-0.5351	88.2%	80.7%	53.5%	42.4%	-0.4916	-0.7631	92.45 % of control	25.35	107.71 % of control and 88.69 % of control and 80.94 % of control	29.53 and 24.32 and 22.19	pIC50 ([1]; Prism variable slope fit, Bottom 0, Top 100, read-out: IC50 (best fit value)): 3.54; remaining activity at 120 µM ([2]; bovine heart mitochondrial membranes; inhibitor 0.12 mM; read-out: average % (rate, % of no-inhibitor control)): 67.1%; remaining activity at 1000 µM ([2]; bovine heart mitochondrial membranes; inhibitor 1.00 mM; read-out: average % (rate, % of no-inhibitor control)): 30.7%; remaining activity at 2000 µM ([2]; bovine heart mitochondrial membranes; inhibitor 2.00 mM; read-out: average % (rate, % of no-inhibitor control)): 19.2%; pIC50 ([2]; sample given as Bovine heart mitochondrial membranes; Prism log(inhibitor) vs. response variable slope fit (four parameters), Bottom 0, Top 100; read-out: IC50 (best fit value)): 3.49
